By Emax is commonly meant the greatest response seen or fitted, relative to the assay's reference. By EC50 is commonly meant the concentration needed to bring the measured effect to its halfway point.

Data on 53 molecules can be found in patent US9868746B2, “Substituted 5-aminothieno[2,3-C]pyridazine-6-carboxamide analogs as positive allosteric modulators of the muscarinic acetylcholine receptor M4” (Vanderbilt University, priority 2012, dated 2018).

For this experiment, the target named is T1, mAChR M4 (Homo sapiens, UniProt P08173).
T1 construct: expressed in transfected cells; host or cells: CHO-K1 cells stably transfected with M4 cDNA and chimeric G-protein Gqi5
T1 sequence (P08173 1-479): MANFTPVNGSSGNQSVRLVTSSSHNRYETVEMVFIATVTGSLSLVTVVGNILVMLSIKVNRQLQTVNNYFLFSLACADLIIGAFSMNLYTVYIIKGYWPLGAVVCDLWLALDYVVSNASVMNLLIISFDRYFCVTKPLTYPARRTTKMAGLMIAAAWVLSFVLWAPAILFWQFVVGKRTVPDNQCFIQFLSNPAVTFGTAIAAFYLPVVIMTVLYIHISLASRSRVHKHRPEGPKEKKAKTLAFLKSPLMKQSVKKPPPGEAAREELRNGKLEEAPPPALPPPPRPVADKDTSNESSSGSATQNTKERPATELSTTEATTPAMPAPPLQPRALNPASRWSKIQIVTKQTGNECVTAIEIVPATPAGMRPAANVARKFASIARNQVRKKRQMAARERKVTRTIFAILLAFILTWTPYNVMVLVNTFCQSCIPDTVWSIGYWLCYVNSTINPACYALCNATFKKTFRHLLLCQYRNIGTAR
Briefly: mAChR M4 cell-based functional assay (calcium mobilization, potentiation of EC20 acetylcholine response). The settings on record: for Emax at 30 µM: % ACh maximum at 30 μM; for EC50: mAChR M4 cell-based functional assay, >10,000 estimated for low potency compounds without plateau, read-out: EC50.

As to `Cc1nnc2sc(C(=O)NCc3cnn(C)c3)c(N)c2c1C` [Example B89], the maximum response (Emax) at 30 µM was determined as 58% and the EC50 was 320 nM.
The like results for `Cc1nnc2sc(C(=O)N3CC(F)(c4ccc(S(C)(=O)=O)cc4)C3)c(N)c2c1C` [Example B383] were, in that order, 51% and 510 nM.
For `Cc1nnc2sc(C(=O)NCc3ccc(C4(S(C)(=O)=O)CC4)cc3)c(N)c2c1C` [Example B105], in that order: 66% and 55 nM.
Regarding `Cc1nnc2sc(C(=O)NCc3ccc(S(=O)(=O)CCO[Si](c4ccccc4)(c4ccccc4)C(C)(C)C)cc3)c(N)c2c1C` [Example B335], the Emax at 30 µM was 74% and the 50% effective concentration (EC50) was 890 nM.
Regarding `Cc1nnc2sc(C(=O)NC3CN(C(=O)c4ccc5ccccc5c4)C3)c(N)c2c1C` [Example B130], the Emax at 30 µM came out at 79% and the concentration giving a half-maximal response (EC50) was 97 nM.
`Cc1nnc2sc(C(=O)NC3CCN(C(=O)CCCc4ccccc4)C3)c(N)c2c1C` (stereo not shown) [Example B258]: the maximal effect (Emax) at 30 µM was determined as 64% and the half-maximal effective concentration (EC50) was 520 nM.
For the molecule `Cc1nnc2sc(C(=O)N3CC4CN(C(=O)OC(C)(C)C)CC4C3)c(N)c2c1C` (stereo not shown) [Example B259], the maximal response (Emax) at 30 µM amounted to 53% and the EC50 was 900 nM.
For `Cc1nnc2sc(C(=O)N3CC(NC(=O)OCc4ccccc4)C3)c(N)c2c1C` [Example B190], in that order: 53% and 560 nM.
The like results for `Cc1nc(C(F)(F)F)c(S(=O)(=O)N2CC(NC(=O)c3sc4nnc(C)c(C)c4c3N)C2)s1` [Example B101] were, in that order, 66% and 84 nM.
The like results for `Cc1nnc2sc(C(=O)N3CC[C@H](F)C3)c(N)c2c1C` [Example B69] were, in that order, 48% and greater than 10000 nM.
Turning to `Cc1nnc2sc(C(=O)NCc3ccc(CN(C)C)cc3)c(N)c2c1C` [Example B328], the Emax at 30 µM was found to be 73% and the EC50 is 130 nM.
In the case of `Cc1nnc2sc(C(=O)NC3(c4ccc(F)cc4)CC3)c(N)c2c1C` [Example B390], the Emax at 30 µM was determined as 46% and the concentration for a half-maximal effect (EC50) was greater than 10000 nM.
Turning to `Cc1nnc2sc(C(=O)NC3CN(C(=O)C4CC4)C3)c(N)c2c1C` [Example B135], the Emax at 30 µM worked out at 73% and the half-maximal effective concentration (EC50) is 230 nM.
Take `Cc1nnc2sc(C(=O)NCc3ccc(-c4ccccc4)cc3)c(N)c2c1C` [Example B472]: the Emax at 30 µM came out at 64% and the EC50 is 230 nM.
For the molecule `COc1cccc(OC(=O)N2CC(NC(=O)c3sc4nnc(C)c(C)c4c3N)C2)c1` [Example B368], the Emax at 30 µM is 69% and the concentration for a half-maximal effect (EC50) is 12 nM.
For `Cc1nnc2sc(C(=O)NC3CCN(C(=O)OCc4ccccc4)C3)c(N)c2c1C` (stereo not shown) [Example B206], the maximal response (Emax) at 30 µM worked out at 64% and the EC50 is 31 nM.
For `COc1ccc(CNC(=O)c2sc3nnc(C)c(C)c3c2N)cn1` [Example B288], in that order: 71% and 150 nM.
In the case of `Cc1nnc2sc(C(=O)NCc3ccc(O)cc3)c(N)c2c1C` [Example B95], the Emax at 30 µM is 66% and the EC50 is 47 nM.
For the molecule `Cc1nnc2sc(C(=O)N3CC(S(=O)(=O)c4ccccc4)C3)c(N)c2c1C` [Example B413], the Emax at 30 µM is 54% and the EC50 was 350 nM.
With `Cc1nnc2sc(C(=O)NCc3ccc(C#N)c(F)c3)c(N)c2c1C` [Example B451], the Emax at 30 µM came out at 66% and the concentration giving a half-maximal response (EC50) is 340 nM.
The like results for `Cc1nnc2sc(C(=O)NC3CN(c4ccccc4)C3)c(N)c2c1C` [Example B481] were, in that order, 62% and 12 nM.
On to `Cc1nnc2sc(C(=O)NCc3ccc(S(=O)(=O)N(C)C)cc3)c(N)c2c1C` [Example B450], for which the Emax at 30 µM came out at 65% and the concentration for a half-maximal effect (EC50) was 65 nM.
`Cc1nnc2sc(C(=O)NCc3ccc(S(=O)(=O)C(F)F)c(Cl)c3)c(N)c2c1C` [Example B489]: the maximal response (Emax) at 30 µM was 73% and the 50% effective concentration (EC50) is 35 nM.
In the case of `Cc1nnc2sc(C(=O)NC3CN(C(=O)Nc4ccccc4F)C3)c(N)c2c1C` [Example B338], the Emax at 30 µM came to 62% and the EC50 was 44 nM.
For the molecule `Cc1nnc2sc(C(=O)N3CC(Sc4ccc(F)cc4F)C3)c(N)c2c1C` [Example B419], the maximum response (Emax) at 30 µM worked out at 56% and the EC50 was 220 nM.
Regarding `Cc1nnc2sc(C(=O)NC3CN(C(=O)CCCc4ccccc4)C3)c(N)c2c1C` [Example B120], the Emax at 30 µM came out at 86% and the EC50 is 190 nM.
In the case of `Cc1cncc(NC(=O)c2sc3nnc(C)c(C)c3c2N)c1` [Example B71], the maximal response (Emax) at 30 µM came out at 31% and the concentration giving a half-maximal response (EC50) is 460 nM.
For `Cc1nnc2sc(C(=O)NC3CN(C(=O)c4cccs4)C3)c(N)c2c1C` [Example B128], in that order: 78% and 31 nM.
With `Cc1nnc2sc(C(=O)NCCNS(C)(=O)=O)c(N)c2c1C` [Example B352], the maximal response (Emax) at 30 µM was 51% and the concentration giving a half-maximal response (EC50) was greater than 10000 nM.
Consider `Cc1nnc2sc(C(=O)NC3CCN(c4cccc(Cl)c4)C3)c(N)c2c1C` (stereo not shown) [Example B268], for which the Emax at 30 µM was found to be 68% and the EC50 is 180 nM.
Take `Cc1nnc2sc(C(=O)NC3CN(S(=O)(=O)c4ccccc4F)C3)c(N)c2c1C` [Example B140]: the Emax at 30 µM stood at 72% and the half-maximal effective concentration (EC50) is 43 nM.
For `Cc1nnc2sc(C(=O)NC(C)(C)C)c(N)c2c1C` [Example B68], the Emax at 30 µM turned out to be 68% and the half-maximal effective concentration (EC50) was 2600 nM.
For `COc1cncc(-c2ccc(CNC(=O)c3sc4nnc(C)c(C)c4c3N)cc2)c1` [Example B488], the Emax at 30 µM amounted to 76% and the EC50 was 49 nM.
Regarding `Cc1cc(F)ncc1-c1ccc(CNC(=O)c2sc3nnc(C)c(C)c3c2N)cc1` [Example B498], the Emax at 30 µM came to 82% and the concentration for a half-maximal effect (EC50) was 330 nM.
As for `Cc1nnc2sc(C(=O)NC3CCN(C(=O)c4cccs4)C3)c(N)c2c1C` (stereo not shown) [Example B200], the Emax at 30 µM was 74% and the EC50 was 91 nM.
On to `Cc1nnc2sc(C(=O)NCc3ccc(N4CCCC4=O)cc3)c(N)c2c1C` [Example B238], for which the Emax at 30 µM is 68% and the concentration giving a half-maximal response (EC50) was 130 nM.
For `COc1ccc([C@@H]2C[C@H]2NC(=O)c2sc3nnc(C)c(C)c3c2N)cc1` (single isomer, unassigned) [Example B32], the Emax at 30 µM is 73% and the EC50 was 300 nM.
For `Cc1nnc2sc(C(=O)NCC3CN(C(=O)OC(C)(C)C)C3)c(N)c2c1C` [Example B197], the maximal response (Emax) at 30 µM turned out to be 35% and the EC50 is greater than 10000 nM.
The like results for `Cc1nnc2sc(C(=O)NCCN(C)C(=O)C3CC3)c(N)c2c1C` [Example B343] were, in that order, 33% and greater than 10000 nM.
As for `Cc1nnc2sc(C(=O)NC3CCN(c4ccc(OC(F)(F)F)cc4)C3)c(N)c2c1C` (stereo not shown) [Example B273], the Emax at 30 µM came out at 71% and the EC50 was 230 nM.
Consider `Cc1nnc2sc(C(=O)NCc3ccc(-c4ccnc(F)c4)cc3)c(N)c2c1C` [Example B461], for which the maximal response (Emax) at 30 µM was determined as 84% and the EC50 was 23 nM.
For `COc1ncc(-c2ccc(CNC(=O)c3sc4nnc(C)c(C)c4c3N)cc2)cn1` [Example B485], in that order: 58% and 48 nM.
Regarding `Cc1nnc2sc(C(=O)NCc3ccc(-c4cc(O)ccc4Cl)cc3)c(N)c2c1C` [Example B500], the Emax at 30 µM was 72% and the EC50 is 1800 nM.
In the case of `Cc1nnc2sc(C(=O)NC3CCN(c4ccccc4F)C3)c(N)c2c1C` (stereo not shown) [Example B339], the maximal response (Emax) at 30 µM was found to be 74% and the EC50 was 76 nM.
On to `Cc1nnc2sc(C(=O)N[C@@H]3C[C@H]3c3ccc(S(C)(=O)=O)cc3)c(N)c2c1C` (single isomer, unassigned) [Example B111], for which the Emax at 30 µM was 60% and the EC50 is 240 nM.
The like results for `Cc1nnc2sc(C(=O)NCc3ccc4c(c3)CCO4)c(N)c2c1C` [Example B27] were, in that order, 76% and 42 nM.
On to `Cc1nnc2sc(C(=O)NC3CCC3)c(N)c2c1C` [Example B84], for which the Emax at 30 µM stood at 61% and the concentration giving a half-maximal response (EC50) is 1000 nM.
As for `Cc1nnc2sc(C(=O)N3CC4CN(c5cccc(F)n5)CC4C3)c(N)c2c1C` (stereo not shown) [Example B442], the maximum response (Emax) at 30 µM was determined as 66% and the EC50 was 310 nM.
Turning to `Cc1nnc2sc(C(=O)NC3CN(C(=O)NCCCN4CCOCC4)C3)c(N)c2c1C` [Example B337], the Emax at 30 µM worked out at 55% and the EC50 was 600 nM.
The like results for `COc1cccc(S(=O)(=O)N2CCC(NC(=O)c3sc4nnc(C)c(C)c4c3N)C2)c1` (stereo not shown) [Example B214] were, in that order, 73% and 820 nM.
For `Cc1nnc2sc(C(=O)NCc3ccccn3)c(N)c2c1C` [Example B13], the maximal response (Emax) at 30 µM was 58% and the concentration giving a half-maximal response (EC50) was 1000 nM.
For the molecule `Cc1nnc2sc(C(=O)NCc3ccc(-n4cccn4)cc3)c(N)c2c1C` [Example B506], the Emax at 30 µM was 70% and the half-maximal effective concentration (EC50) is 150 nM.
As for `Cc1nnc2sc(C(=O)N3CC4CN(c5ncccn5)CC4C3)c(N)c2c1C` (stereo not shown) [Example B434], the maximum response (Emax) at 30 µM is 48% and the concentration for a half-maximal effect (EC50) is 1100 nM.
